Laboratory results published in PubChem BioAssay (NCI).
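Exposure lasted 48 hours, with cells grown in 96-well plates and compounds tested at five concentrations. GI50 marks 50% less growth. TGI: concentration producing complete growth inhibition.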

Experiments:
Assay in all cases: growth of human tumour cells (NCI), 48 h
CAKI-1 renal = tested on: CAKI-1 renal
PC-3 prostate = tested on: PC-3 prostate
EKVX NSCLC = tested on: EKVX NSCLC
NCI-H522 lung = tested on: NCI-H522 lung
MCF7 breast = tested on: MCF7 breast
M14 melanoma = tested on: M14 melanoma
IGROV1 ovarian = tested on: IGROV1 ovarian
786-0 renal = tested on: 786-0 renal
SNB-19 CNS = tested on: SNB-19 CNS
A498 renal = tested on: A498 renal
KM12 colon = tested on: KM12 colon
UACC-257 melanoma = tested on: UACC-257 melanoma
HOP-92 NSCLC = tested on: HOP-92 NSCLC
UO-31 renal = tested on: UO-31 renal
CCRF-CEM leukemia = tested on: CCRF-CEM leukemia
OVCAR-5 ovarian = tested on: OVCAR-5 ovarian
HOP-62 NSCLC = tested on: HOP-62 NSCLC
OVCAR-3 ovarian = tested on: OVCAR-3 ovarian
SNB-75 CNS = tested on: SNB-75 CNS
DU-145 prostate = tested on: DU-145 prostate
K-562 leukemia = tested on: K-562 leukemia
HT29 colon = tested on: HT29 colon
SF-539 CNS = tested on: SF-539 CNS
NCI/ADR-RES ovarian = tested on: NCI/ADR-RES ovarian
UACC-62 melanoma = tested on: UACC-62 melanoma
SW-620 colon = tested on: SW-620 colon
COLO 205 colon = tested on: COLO 205 colon
NCI-H226 lung = tested on: NCI-H226 lung
MALME-3M melanoma = tested on: MALME-3M melanoma
MDA-MB-231 breast = tested on: MDA-MB-231 breast
HCT-116 colon = tested on: HCT-116 colon
RXF 393 renal = tested on: RXF 393 renal
SK-MEL-28 melanoma = tested on: SK-MEL-28 melanoma
TK-10 renal = tested on: TK-10 renal
MDA-MB-435 = tested on: MDA-MB-435
SK-OV-3 ovarian = tested on: SK-OV-3 ovarian
U251 CNS = tested on: U251 CNS
A549 NSCLC = tested on: A549 NSCLC
HS 578T breast = tested on: HS 578T breast
OVCAR-8 ovarian = tested on: OVCAR-8 ovarian
BT-549 breast = tested on: BT-549 breast
SF-268 CNS = tested on: SF-268 CNS
T-47D breast = tested on: T-47D breast
SK-MEL-2 melanoma = tested on: SK-MEL-2 melanoma
SR leukemia = tested on: SR leukemia
SN12C renal = tested on: SN12C renal
RPMI-8226 leukemia = tested on: RPMI-8226 leukemia
HL-60(TB) leukemia = tested on: HL-60(TB) leukemia
LOX IMVI melanoma = tested on: LOX IMVI melanoma
OVCAR-4 ovarian = tested on: OVCAR-4 ovarian
SF-295 CNS = tested on: SF-295 CNS
NCI-H23 lung = tested on: NCI-H23 lung
NCI-H460 lung = tested on: NCI-H460 lung
SK-MEL-5 melanoma = tested on: SK-MEL-5 melanoma

`CN1CCN(Cc2ccc(Nc3ncc(Cl)c(Nc4ccccc4S(=O)(=O)N(C)C)n3)cc2)CC1` showed a GI50 (CAKI-1 renal) of 37.7 nM, a TGI (CAKI-1 renal) of 1090 nM and a GI50 (PC-3 prostate) of 73.1 nM. The TGI (PC-3 prostate) was over 100000 nM, the GI50 (EKVX NSCLC) was 31.7 nM and the TGI (EKVX NSCLC) was 366 nM. The GI50 (NCI-H522 lung) was under 24.6 nM, the TGI (NCI-H522 lung) was 255 nM and the GI50 (MCF7 breast) was under 10 nM. The TGI (MCF7 breast) was 1170 nM, the GI50 (M14 melanoma) was 60.8 nM and the TGI (M14 melanoma) was 277 nM. For the same compound, the GI50 (IGROV1 ovarian) was 24.9 nM, the TGI (IGROV1 ovarian) was 1630 nM and the GI50 (786-0 renal) was 52.4 nM. For the same compound, the TGI (786-0 renal) was 1280 nM, the GI50 (SNB-19 CNS) was 52.9 nM and the TGI (SNB-19 CNS) was 2960 nM. It also gave a GI50 (A498 renal) of 114 nM, a TGI (A498 renal) of 327 nM and a GI50 (KM12 colon) of 24.4 nM. For the same compound, the TGI (KM12 colon) was over 100000 nM, the GI50 (UACC-257 melanoma) was 47.3 nM and the TGI (UACC-257 melanoma) was 820 nM. For the same compound, the GI50 (HOP-92 NSCLC) was 99.9 nM, the TGI (HOP-92 NSCLC) was 1680 nM and the GI50 (UO-31 renal) was 38.7 nM. The TGI (UO-31 renal) was 1400 nM, the GI50 (CCRF-CEM leukemia) was under 18.7 nM and the TGI (CCRF-CEM leukemia) was over 100000 nM. It also gave a GI50 (OVCAR-5 ovarian) of 37.8 nM, a TGI (OVCAR-5 ovarian) of over 100000 nM and a GI50 (HOP-62 NSCLC) of 34.4 nM. For the same compound, the TGI (HOP-62 NSCLC) was 900 nM, the GI50 (OVCAR-3 ovarian) was 61 nM and the TGI (OVCAR-3 ovarian) was over 100000 nM. For the same compound, the GI50 (SNB-75 CNS) was 94.8 nM, the TGI (SNB-75 CNS) was 308 nM and the GI50 (DU-145 prostate) was 51.6 nM. It also gave a TGI (DU-145 prostate) of over 100000 nM, a GI50 (K-562 leukemia) of 38.6 nM and a TGI (K-562 leukemia) of over 100000 nM. The GI50 (HT29 colon) was 30.8 nM, the TGI (HT29 colon) was 577 nM and the GI50 (SF-539 CNS) was 114 nM. It also gave a TGI (SF-539 CNS) of 343 nM, a GI50 (NCI/ADR-RES ovarian) of 74.7 nM and a TGI (NCI/ADR-RES ovarian) of 1240 nM. For the same compound, the GI50 (UACC-62 melanoma) was 22.9 nM, the TGI (UACC-62 melanoma) was 180 nM and the GI50 (SW-620 colon) was 25.4 nM. It also gave a TGI (SW-620 colon) of over 100000 nM, a GI50 (COLO 205 colon) of 27.8 nM and a TGI (COLO 205 colon) of 222 nM. It also gave a GI50 (NCI-H226 lung) of 91.5 nM, a TGI (NCI-H226 lung) of 859 nM and a GI50 (MALME-3M melanoma) of 92 nM. The TGI (MALME-3M melanoma) was 379 nM, the GI50 (MDA-MB-231 breast) was 22.2 nM and the TGI (MDA-MB-231 breast) was 376 nM. For the same compound, the GI50 (HCT-116 colon) was under 15.7 nM, the GI50 (RXF 393 renal) was 33 nM and the TGI (RXF 393 renal) was 122 nM. It also gave a GI50 (SK-MEL-28 melanoma) of 49.7 nM, a TGI (SK-MEL-28 melanoma) of 415 nM and a GI50 (TK-10 renal) of 81.9 nM. For the same compound, the TGI (TK-10 renal) was 1190 nM, the GI50 (MDA-MB-435) was 27.4 nM and the TGI (MDA-MB-435) was 429 nM. For the same compound, the GI50 (SK-OV-3 ovarian) was 219 nM, the TGI (SK-OV-3 ovarian) was over 100000 nM and the GI50 (U251 CNS) was 38 nM. For the same compound, the TGI (U251 CNS) was 1460 nM, the GI50 (A549 NSCLC) was 36.5 nM and the TGI (A549 NSCLC) was 1700 nM. For the same compound, the GI50 (HS 578T breast) was 98.4 nM, the TGI (HS 578T breast) was 1180 nM and the GI50 (OVCAR-8 ovarian) was 73.8 nM. For the same compound, the GI50 (BT-549 breast) was 137 nM, the TGI (BT-549 breast) was 374 nM and the GI50 (SF-268 CNS) was 99.7 nM. It also gave a TGI (SF-268 CNS) of 1020 nM, a GI50 (T-47D breast) of 116 nM and a TGI (T-47D breast) of 965 nM. For the same compound, the GI50 (SK-MEL-2 melanoma) was 45.8 nM, the TGI (SK-MEL-2 melanoma) was 172 nM and the GI50 (SR leukemia) was under 10 nM. For the same compound, the GI50 (SN12C renal) was 39.9 nM, the TGI (SN12C renal) was 1230 nM and the GI50 (RPMI-8226 leukemia) was 10.3 nM. For the same compound, the TGI (RPMI-8226 leukemia) was 1240 nM, the GI50 (HL-60(TB) leukemia) was 17.5 nM and the TGI (HL-60(TB) leukemia) was 198 nM. The GI50 (LOX IMVI melanoma) was under 14.3 nM, the TGI (LOX IMVI melanoma) was 124 nM and the GI50 (OVCAR-4 ovarian) was 72 nM. It also gave a TGI (OVCAR-4 ovarian) of 649 nM, a GI50 (SF-295 CNS) of 16.9 nM and a TGI (SF-295 CNS) of over 100000 nM. The GI50 (NCI-H23 lung) was 33.8 nM, the TGI (NCI-H23 lung) was 358 nM and the GI50 (NCI-H460 lung) was under 13.1 nM. The TGI (NCI-H460 lung) was 198 nM, the GI50 (SK-MEL-5 melanoma) was 75.9 nM and the TGI (SK-MEL-5 melanoma) was 387 nM.
